Test results as given in patent publication US20160287589A1, “SUBSTITUTED-IMIDAZOPYRIDAZINES” (BAYER PHARMA AKTIENGESELLSCHAFT, priority 2013, published 2016).
pIC50: −log10 of the molar value.

Assays:
MKNK1 [1] = target: T1, MKNK1 (Homo sapiens, UniProt Q9BUB5, T385D); experiment: MKNK1 kinase assay (MKNK1 TR-FRET assay); assay type: biochemical; details: 10 μM ATP, 15 min preincubation
T1 construct: GST (N); purchased Carna Biosciences 02-145; host or cells: insect cells (baculovirus expression system)
T1 sequence (Q9BUB5 1-424 isoform Q9BUB5-2 T344D): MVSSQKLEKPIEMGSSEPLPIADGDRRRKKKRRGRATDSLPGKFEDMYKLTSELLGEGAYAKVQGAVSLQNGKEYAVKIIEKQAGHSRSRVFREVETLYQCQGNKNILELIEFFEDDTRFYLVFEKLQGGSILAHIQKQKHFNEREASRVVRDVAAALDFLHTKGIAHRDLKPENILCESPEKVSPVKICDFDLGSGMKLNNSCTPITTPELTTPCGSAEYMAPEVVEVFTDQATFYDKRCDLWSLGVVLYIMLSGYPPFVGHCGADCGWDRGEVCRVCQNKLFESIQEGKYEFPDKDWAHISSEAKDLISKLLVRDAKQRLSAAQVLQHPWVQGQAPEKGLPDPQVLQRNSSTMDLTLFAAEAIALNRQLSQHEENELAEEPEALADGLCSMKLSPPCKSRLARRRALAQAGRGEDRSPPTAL

MKNK1 [2] = target: T1, MKNK1; experiment: MKNK1 kinase high ATP assay (TR-FRET-based); assay type: biochemical; details: 2 mM ATP, 15 min preincubation
In short: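 GST-tagged full-length human MKNK1 (aa 1-424, T344D) from insect cells, preincubated with compound 15 min at 22 °C. Reaction 30 min at 22 °C with 2 mM ATP and 0.06 μM biotinylated peptide in HEPES pH 7.5, Mg2+, DTT. Phosphopeptide detected by TR-FRET (665/622 ratio) with anti-pS6 (pSer236) antibody; normalised to no-inhibitor and no-enzyme controls.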

pIC50 (MKNK1 [1]; Table 1b) | pIC50 (MKNK1 [2]; Table 2b) | pIC50 (MKNK1 [1]; Table 1c) | pIC50 (MKNK1 [2]; Table 2c) | Compound
 |  | 8.08 | 7.71 | C[C@@H](N)COc1ccc2ncc(-c3cc4c(N5CCOCC5)nccc4o3)n2n1 [III-1, (2R)-1-({3-[4-(Morpholin-4-yl)furo[3,2-c]pyridin-2-yl]imidazo[1,2-b]pyridazin-6-yl}oxy)propan-2-amine]
 |  | 8.74 | 8.74 | C[C@@H](N)COc1ccc2ncc(-c3cc4c(N5CCC(CO)CC5)nccc4o3)n2n1 [III-2, {1-[2-(6-{[(2R)-2-Aminopropyl]oxy}imidazo[1,2-b]pyridazin-3-yl)furo[3,2-c]pyridin-4-yl]piperidin-4-yl}methanol]
 |  | 8.17 | 7.93 | C[C@@H]1COCCN1c1nccc2oc(-c3cnc4ccc(OC[C@@H](C)N)nn34)cc12 [III-3, (2R)-1-[(3-{4-[(3R)-3-Methylmorpholin-4-yl]furo[3,2-c]pyridin-2-yl}imidazo-[1,2-b]pyridazin-6-yl)oxy]propan-2-amine]
 |  | 9.22 | 9.40 | CCN(CCOC)c1nccc2oc(-c3cnc4ccc(OC[C@@H](C)N)nn34)cc12 [III-4, 2-(6-{[(2R)-2-Aminopropyl]oxy}imidazo[1,2-b]pyridazin-3-yl)-N-ethyl-N-(2-methoxyethyl)furo[3,2-c]pyridin-4-amine]
 |  | 7.94 | 7.66 | C[C@H](N)COc1ccc2ncc(-c3cc4c(N5CCOCC5)nccc4o3)n2n1 [III-7, (2S)-1-({3-[4-(Morpholin-4-yl)furo[3,2-c]pyridin-2-yl]imidazo[1,2-b]pyridazin-6-yl}oxy)propan-2-amine]
 |  | 8.14 | 7.79 | C[C@H](N)COc1ccc2ncc(-c3cc4c(N5CCN(C)CC5)nccc4o3)n2n1 [III-8, (2S)-1-({3-[4-(4-Methylpiperazin-1-yl)furo[3,2-c]pyridin-2-yl]imidazo[1,2-b]pyridazin-6-yl}oxy)propan-2-amine]
 |  | 7.97 | 7.69 | C[C@H](N)COc1ccc2ncc(-c3cc4c(N5CCCCC5)nccc4o3)n2n1 [III-9, (2S)-1-({3-[4-(Piperidin-1-yl)furo[3,2-c]pyridin-2-yl]imidazo[1,2-b]pyridazin-6-yl}oxy)propan-2-amine]
 |  | 7.81 | 7.20 | C[C@H](N)COc1ccc2ncc(-c3cc4c(N5CCCC5)nccc4o3)n2n1 [III-10, (2S)-1-({3-[4-(Pyrrolidin-1-yl)furo[3,2-c]pyridin-2-yl]imidazo[1,2-b]pyridazin-6-yl}oxy)propan-2-amine]
 |  | 8.57 | 7.91 | C[C@H](N)COc1ccc2ncc(-c3cc4c(N5CC[C@@H](N(C)C)C5)nccc4o3)n2n1 [III-11, (3R)-1-[2-(6-{[(2S)-2-Aminopropyl]oxy}imidazo[1,2-b]pyridazin-3-yl)furo[3,2-c]pyridin-4-yl]-N,N-dimethylpyrrolidin-3-amine]
 |  | 8.07 | 7.37 | C[C@H](N)COc1ccc2ncc(-c3cc4c(N(C)CCCN5CCCC5)nccc4o3)n2n1 [III-12, 2-(6-{[(2S)-2-Aminopropyl]oxy}imidazo[1,2-b]pyridazin-3-yl)-N-methyl-N-[3-(pyrrolidin-1-yl)propyl]furo[3,2-c]pyridin-4-amine]
 |  | 8.16 | 7.75 | C[C@H](N)COc1ccc2ncc(-c3cc4c(N5CCC[C@@H]5CO)nccc4o3)n2n1 [III-14, {(2R)-1-[2-(6-{[(2S)-2-Aminopropyl]oxy}imidazo[1,2-b]pyridazin-3-yl)furo-[3,2-c]pyridin-4-yl]pyrrolidin-2-yl}methanol]
 |  | 7.51 | 7.11 | C[C@H](N)COc1ccc2ncc(-c3cc4c(N5CCN(C(=O)OC(C)(C)C)CC5)nccc4o3)n2n1 [III-15, tert-Butyl 4-[2-(6-{[(2S)-2-aminopropyl]oxy}imidazo[1,2-b]pyridazin-3-yl)furo[3,2-c]pyridin-4-yl]piperazine-1-carboxylate]
 |  | 8.68 | 8.22 | COCCN(C)c1nccc2oc(-c3cnc4ccc(OC[C@H](C)N)nn34)cc12 [III-16, 2-(6-{[(2S)-2-Aminopropyl]oxy}imidazo[1,2-b]pyridazin-3-yl)-N-(2-methoxyethyl)-N-methylfuro[3,2-c]pyridin-4-amine]
 |  | 7.74 | 7.35 | C[C@H](N)COc1ccc2ncc(-c3cc4c(N5CCNCC5)nccc4o3)n2n1 [III-17, (2S)-1-({3-[4-(Piperazin-1-yl)furo[3,2-c]pyridin-2-yl]imidazo[1,2-b]pyridazin-6-yl}oxy)propan-2-amine]

More lines, now with the values behind:

Compound | pIC50 (MKNK1 [1]; Table 1b) | pIC50 (MKNK1 [2]; Table 2b) | pIC50 (MKNK1 [1]; Table 1c) | pIC50 (MKNK1 [2]; Table 2c)
C[C@H]1CNCCN1c1cccc2oc(-c3cnc4ccc(OCCCS(C)(=O)=O)nn34)cc12 [II-58, 3-{4-[(2S)-2-methylpiperazin-1-yl]-1-benzofuran-2-yl}-6-[3-(methylsulfonyl)propoxy]im-idazo[1,2-b]pyridazine] | 8.59 | 8.85 |  | 
C[C@@H]1CN(c2cccc3oc(-c4cnc5ccc(OCC(F)(F)F)nn45)cc23)CCN1 [II-59, 3-{4-[(3R)-3-methylpiperazin-1-yl]-1-benzofuran-2-yl}-6-(2,2,2-trifluoroethoxy)im-idazo[1,2-b]pyridazine] | 8.19 | 8.70 |  | 
C[C@H](N)COc1ccc2ncc(-c3cc4c(N5CCOC(C)(C)C5)cccc4o3)n2n1 [II-61, (2S)-1-({3-[4-(2,2-dimethylmorpholin-4-yl)-1-benzofuran-2-yl]imidazo[1,2-b]pyridazin-6-yl}oxy)propan-2-amine] | 7.63 | 7.18 |  | 
CC1(C)CN(c2cccc3oc(-c4cnc5ccc(OC[C@@H]6CCC(=O)N6)nn45)cc23)CCO1 [II-63, (5S)-5-[({3-[4-(2,2-dimethylmorpholin-4-yl)-1-benzofuran-2-yl]imidazo[1,2-b]pyridazin-6-yl}oxy)methyl]pyrrolidin-2-one] | 7.82 | 7.40 |  | 
C[C@@H]1CNCCN1c1cccc2oc(-c3cnc4ccc(OC[C@H]5CCC(=O)N5)nn34)cc12 [II-65, (5R)-5-{[(3-{4-[(2R)-2-methylpiperazin-1-yl]-1-benzofuran-2-yl}imidazo[1,2-b]pyridazin-6-yl)oxy]methyl}pyrrolidin-2-one] | 9.05 | 8.89 |  | 
C[C@H](N)COc1ccc2ncc(-c3cc4c(N5CCO[C@@H](C)C5)cccc4o3)n2n1 [II-67, (2S)-1-[(3-{4-[(2S)-2-methylmorpholin-4-yl]-1-benzofuran-2-yl}imidazo[1,2-b]pyridazin-6-yl)oxy]propan-2-amine] | 7.63 | 7.25 |  | 
C[C@H]1CN(c2cccc3oc(-c4cnc5ccc(OC[C@@H]6CCC(=O)N6)nn45)cc23)CCO1 [II-68, (5S)-5-{[(3-{4-[(2S)-2-methylmorpholin-4-yl]-1-benzofuran-2-yl}imidazo[1,2-b]pyridazin-6-yl)oxy]methyl}pyrrolidin-2-one] | 7.63 | 7.52 |  | 
C[C@@H]1CN(c2cccc3oc(-c4cnc5ccc(OC[C@@H](C)N)nn45)cc23)CCO1 [II-69, (2R)-1-[(3-{4-[(2R)-2-methylmorpholin-4-yl]-1-benzofuran-2-yl}imidazo[1,2-b]pyridazin-6-yl)oxy]propan-2-amine] | 7.53 | 7.46 |  | 
C[C@H](N)COc1ccc2ncc(-c3cc4c(N5CCO[C@H](C)C5)cccc4o3)n2n1 [II-70, (2S)-1-[(3-{4-[(2R)-2-methylmorpholin-4-yl]-1-benzofuran-2-yl}imidazo[1,2-b]pyridazin-6-yl)oxy]propan-2-amine] | 7.38 | 7.31 |  | 
C[C@@H]1CN(c2cccc3oc(-c4cnc5ccc(OC[C@H]6CCC(=O)N6)nn45)cc23)CCO1 [II-71, (5R)-5-{[(3-{4-[(2R)-2-methylmorpholin-4-yl]-1-benzofuran-2-yl}imidazo[1,2-b]pyridazin-6-yl)oxy]methyl}pyrrolidin-2-one] | 8.19 | 8.21 |  | 
C[C@@H]1CN(c2cccc3oc(-c4cnc5ccc(OC[C@@H]6CCC(=O)N6)nn45)cc23)CCO1 [II-72, (5S)-5-{[(3-{4-[(2R)-2-methylmorpholin-4-yl]-1-benzofuran-2-yl}imidazo[1,2-b]pyridazin-6-yl)oxy]methyl}pyrrolidin-2-one] | 7.80 | 7.48 |  | 
C[C@@H]1CN(c2cccc3oc(-c4cnc5ccc(O[C@H]6C[C@H](N)C6)nn45)cc23)CCO1 [II-73, trans-3-[(3-{4-[(2R)-2-methylmorpholin-4-yl]-1-benzofuran-2-yl}imidazo[1,2-b]pyridazin-6-yl)oxy]cyclobutanamine] | 7.37 | 7.32 |  | 
CC1(C)CN(c2cccc3oc(-c4cnc5ccc(OC[C@H]6CCC(=O)N6)nn45)cc23)CCO1 [II-74, (5R)-5-[({3-[4-(2,2-dimethylmorpholin-4-yl)-1-benzofuran-2-yl]imidazo[1,2-b]pyridazin-6-yl}oxy)methyl]pyrrolidin-2-one] | 8.39 | 7.95 |  | 
C[C@@H](N)COc1ccc2ncc(-c3cc4c(N5CCOC[C@@H]5C)cccc4o3)n2n1 [II-75, (2R)-1-[(3-{4-[(3S)-3-methylmorpholin-4-yl]-1-benzofuran-2-yl}imidazo[1,2-b]pyridazin-6-yl)oxy]propan-2-amine] | 7.64 | 7.59 |  | 
C[C@@H](N)COc1ccc2ncc(-c3cc4c(N5CCO[C@@H](C)C5)cccc4o3)n2n1 [II-76, (2R)-1-[(3-{4-[(2S)-2-methylmorpholin-4-yl]-1-benzofuran-2-yl}imidazo[1,2-b]pyridazin-6-yl)oxy]propan-2-amine] | 8.16 | 7.74 |  | 
C[C@H](N)COc1ccc2ncc(-c3cc4c(N(C)C5CCN(C)CC5)nccc4o3)n2n1 [III-13, 2-(6-{[(2S)-2-Aminopropyl]oxy}imidazo[1,2-b]pyridazin-3-yl)-N-methyl-N-(1-methylpiperidin-4-yl)furo[3,2-c]pyridin-4-amine] |  |  | 7.89 | 7.21
